Assay results from patent US9918966B2, “Anti-cancer compositions and methods” (The Penn State Research Foundation, priority 2013, dated 2018).

Columns and labels:
[1] = tested on: normal human melanocytes or fibroblast cells
Method: Cell viability, proliferation, apoptosis and cell cycle analysis: Viability and IC50 (μmol/L) of normal human melanocytes, fibroblast and melanoma cells following treatment with inhibitors are measured using the MTS assay (Promega, Madison, Wis.) described in Sharma A, et al., Clin Cancer Res 2009; 15:1674-85; and Madhunapantula S V, et al., Mol Cancer Ther 2008; 7:1297-308. […] IC50 values for each inhibitor in μmol/L for respective cell lines are measured from three independent experiments using GraphPad Prism version 4.01 (GraphPad Software, La Jolla, Calif.).

1205 Lu melanoma cells [2] = test: Western blot analysis; type: cell-based, human
Excerpt: (§1) Cell lysates are harvested and processed as described in Sharma A et al., Cancer Res 2006, 66:8200-9. […] Protein lysates are collected for Western blotting. Blots are probed with total and phospho-Akt (Ser473), phospho-PRAS40 (Thr246), phospho-Erk1/2 (Thr202/Tyr204), total and Phospho-Mek1/2 (Ser217) and cleaved PARP from Cell Signaling Technology (Danvers, Mass.). Total PRAS40 from Invitrogen (Carlsbad, Calif.). Total Erk, cyclin D1, p27, Alpha-enolase and secondary antibodies conjugated with horseradish peroxidase from Santa Cruz Biotechnology (Santa Cruz Biotechnology, Santa Cruz, Calif.). COX-1 and COX-2 antibodies were obtained from Cayman Chemical Company, Ann Arbor, Mich. Immunoblots are developed using the enhanced chemiluminescence detection system (Amersham Pharmacia Biotech, Piscataway, N.J.).

UACC 903 melanoma cells [3] = test: Western blot analysis; type: cell-based, human
Excerpt: as §1

1205 Lu melanoma cells [4] = test: Reactive oxygen species (ROS) assay; type: cell-based, human; conditions: 5, 10, 15 and 20 μmol/L, 24 hours, compared to celecoxib and selenocoxib-1
Method: (§2) Intracellular ROS are monitored according to a procedure described in detail in Smasundaram et al., Cancer Res., 62:3868-3875, 2002. […] After 24 hours treatment, total cells (floating and adherent) are collected in ice-cold phosphate-buffered saline and 5×10^3 cells/well placed in 100 microliters culture medium in a 96-well plate containing 10 micromoles/liter 2′,7′-dichlorfluorescein-diacetate (commercially available from Sigma, St. Louis, Mo.) and incubated at 37° C. for 30 minutes. The amount of ROS present compared to DMSO vehicle treated cells was represented in arbitrary units.
(§3) Selenocoxib-1-GSH inhibits the generation of ROS.

UACC 903 melanoma cells [5] = test: Reactive oxygen species (ROS) assay; type: cell-based, human; conditions: 5, 10, 15 and 20 μmol/L, 24 hours, compared to celecoxib and selenocoxib-1
Method: as §2, §3

1205 Lu melanoma cells [6] = test: Apo-ONE caspase-3/7 assay (apoptosis); type: cell-based, human; conditions: 72 h, dose dependent up to 25 μmol/L
Excerpt: (§4) Data represent averages of at least 3 independent experiments; bars; S.E.M.

UACC 903 melanoma cells [7] = test: Apo-ONE caspase-3/7 assay (apoptosis); type: cell-based, human
Excerpt: as §4

1205 Lu melanoma cells [8] = test: Cell cycle analysis, propidium iodide FACScan; type: cell-based, human; conditions: 72 h
Method: (§5) The effect of selenocoxib-1-GSH on cell cycle distribution is measured by analyzing propidium iodide stained 1205 Lu and UACC 903 cells using a BD FACScan. […] Total floating and adherent cells are collected following trypsinization and stained using a 1 mL propidium iodide solution containing 100 μg/mL propidium iodide; (Sigma, St Louis, Mo.), 20 μg/mL Ribonuclease A (Roche diagnostics, Indianapolis, Ind.) and 3 μg/mL Triton X-100 dissolved in 0.1% (W/V) sodium citrate for 30 m at 4° C.
(§6) Selenocoxib-1-GSH treatment increases the sub-G0-G1 cell population, which is indicative of cellular apoptosis. […] Total floating and adherent cells are collected, and stained with propidium iodide to analyze the distribution of cells in different phases of the cell cycle stages using a FACScan analyzer. […] Data represents an average of 2 independent experiments.

UACC 903 melanoma cells [9] = test: Cell cycle analysis, propidium iodide FACScan; type: cell-based, human; conditions: 72 h
Method: as §5, §6

1205 Lu melanoma cells [10] = test: Cell proliferation ELISA BrdU; type: cell-based, human; conditions: 72 h, increasing concentrations
Excerpt: as §4
(§7) Percentage of proliferating and apoptotic cells are quantified by a colorimetric using cell proliferation ELISA BrdU kit (Roche Applied Sciences, Indianapolis, Ind.) and Apo-ONE Homogenous caspase-3/7 assay kit (Promega, Madison Wis.), as described in Sharma A, et al., Clin Cancer Res 2009; 15:1674-85; and Madhunapantula S V, et al., Mal Cancer Ther 2008; 7:1297-308.

UACC 903 melanoma cells [11] = test: Cell proliferation ELISA BrdU; type: cell-based, human; conditions: UACC 903, 72 h, increasing concentrations
Excerpt: as §4, §7

[12] = Toxicity assessments: blood markers and H&E of vital organs; type: in vivo
Method: Four to six week old athymic-Foxn1^nu nude mice (Harlan Sprague Dawley, IN), are treated with either vehicle control or selenocoxib-1-GSH (n=5) as described in tumor kinetics studies. At the end of treatment, blood is collected from each sacrificed animal in a plasma separator tube with lithium heparin (BD Microtainer) following cardiac puncture and analyzed for ALKP (Alkaline phosphatase), ALT (Alanine aminotransferase), AST (Aspartate aminotransferase), ALB (Total albumin), TBIL (Total bilirubin), CREA (Creatinine), BUN (Blood urea nitrogen), CHOL (Total cholesterol), TRIG (Total triglyceride) and GLU (Glucose) levels to ascertain possible liver, heart, kidney, and pancreas related toxicity. A portion of vital organs, liver, heart, kidney, pancreas, and spleen-from each animal is formalin-fixed and paraffin-embedded to examine toxicity-associated changes in cell morphology and tissue organization following H&E staining as described in Nguyen N, et al. Cancer Prev Res (Phila) 2011; 4: 248-58.

NC(CCC(=O)NC(CS[Se]Cc1cc(-c2ccccc2)n(-c2ccc(S(N)(=O)=O)cc2)n1)C(=O)NCC(=O)O)C(=O)O (centres unmarked) [Selenocoxib-1-GSH, selenocoxib-1-glutathione]
toxicity on normal cells relative to melanoma cells [1]: significantly lower toxicity on normal cells | cleaved PARP protein (1205 Lu melanoma cells [2]): elevates levels of cleaved PARP protein | expression of cyclin-D1 (1205 Lu melanoma cells [2]): inhibits the expression of cyclin-D1 | levels of p27 (1205 Lu melanoma cells [2]): increases the levels of p27 | pErk1/2 levels (1205 Lu melanoma cells [2]; 15 and 20 μmol/L): increased pErk1/2 levels | pPRAS40 (1205 Lu melanoma cells [2]; 72 h): reduces expression | Akt phosphorylation (1205 Lu melanoma cells [2]; 72 h, increasing concentrations, compared to celecoxib): inhibited the Akt phosphorylation in a dose dependent manner | cleaved PARP protein (UACC 903 melanoma cells [3]; UACC 903): elevates levels of cleaved PARP protein | expression of cyclin-D1 (UACC 903 melanoma cells [3]; UACC 903): inhibits the expression of cyclin-D1 | levels of p27 (UACC 903 melanoma cells [3]; UACC 903): increases the levels of p27 | pErk1/2 levels (UACC 903 melanoma cells [3]; UACC 903, 15 and 20 μmol/L): increased pErk1/2 levels | pPRAS40 (UACC 903 melanoma cells [3]; UACC 903, 72 h): reduces expression | Akt phosphorylation (UACC 903 melanoma cells [3]; UACC 903, 72 h, increasing concentrations, compared to celecoxib): inhibited the Akt phosphorylation in a dose dependent manner | ROS (1205 Lu melanoma cells [4]): more dramatically decreased ROS | ROS (UACC 903 melanoma cells [5]): more dramatically decreased ROS | caspase-3/7 activity (1205 Lu melanoma cells [6]): increases caspase-3/7 activity | caspase-3/7 activity (UACC 903 melanoma cells [7]; UACC 903, 50 μmol/L, 72 h): significant decrease | caspase-3/7 activity (UACC 903 melanoma cells [7]; UACC 903, 72 h, dose dependent up to 25 μmol/L): increases caspase-3/7 activity | increase of sub-G0-G1 population cells (1205 Lu melanoma cells [8]; 25 μmol/L): 6.2 fold | cell cycle progression (1205 Lu melanoma cells [8]; 12.5 and 25 μmol/L): inhibits cell cycle progression | increase of sub-G0-G1 population cells (UACC 903 melanoma cells [9]; UACC 903, 25 μmol/L): 4.7 fold | cell cycle progression (UACC 903 melanoma cells [9]; UACC 903, 12.5 and 25 μmol/L): inhibits cell cycle progression | cell proliferation (BrdU incorporation) (1205 Lu melanoma cells [10]): reduces proliferation | cell proliferation (BrdU incorporation) (UACC 903 melanoma cells [11]): reduces proliferation | H&E stained tissue sections of liver, heart, lung, kidney or spleen ([12]; at the end of treatment, versus DMSO vehicle): no changes in the morphology or architecture | levels of blood markers for major organ related toxicity (ALKP, ALT, AST, ALB, TBIL, CREA, BUN, CHOL, TRIG, GLU) ([12]; mouse, in vivo): negligible differences compared to controls
